One test deals with LYN B (Homo sapiens, UniProt P07948). Briefly: Z'-LYTE SelectScreen biochemical kinase assay LYN B. From the text:
(§1) Thermo Fisher Scientific SelectScreen™ Biochemical Kinase Profiling Service Z′-LYTE™ Screening Protocol and Assay Conditions Assay Theory
(§2) The […] biochemical assay employs a fluorescence-based, coupled-enzyme format and is based on the differential sensitivity of phosphorylated and non-phosphorylated peptides to proteolytic cleavage. The peptide substrate is labeled with two fluorophores—one at each end—that make up a FRET pair. In the primary reaction, the kinase transfers the gamma-phosphate of ATP to a single tyrosine, serine or threonine residue in a synthetic FRET-peptide. In the secondary reaction, a site-specific protease recognizes and cleaves non-phosphorylated FRET-peptides. Phosphorylation of FRET-peptides suppresses cleavage by the Development Reagent. Cleavage disrupts FRET between the donor (i.e., coumarin) and acceptor (i.e., fluorescein) fluorophores on the FRET-peptide, whereas uncleaved, phosphorylated FRET-peptides maintain FRET. A ratiometric method, which calculates the ratio (Emission Ratio=Coumarin emission (445 nm)/Fluorescein emission (520 nm)) of donor emission to acceptor emission after excitation of the donor fluorophore at 400 nm, is used to quantitate reaction progress, as shown in the equation below. A significant benefit of this ratiometric method for quantitating reaction progress is the elimination of well-to-well variations in FRET-peptide concentration and signal intensities. As a result, the assay yields very high Z′-factor values (>0.7) at a low percent phosphorylation. Both cleaved and uncleaved FRET-peptides contribute to the fluorescence signals and therefore to the Emission Ratio. The extent of phosphorylation of the FRET-peptide can be calculated from the Emission Ratio. The Emission Ratio will remain low if the FRET-peptide is phosphorylated (i.e., no kinase inhibition) and will be high if the FRET-peptide is non-phosphorylated (i.e., kinase inhibition).
(§3) The Test Compounds are screened in 1% DMSO (final) in the well. For 10 point titrations, 3-fold serial dilutions are conducted from the starting concentration of the customer's choosing.
(§4) All Peptide/Kinase Mixtures are diluted to a 2× working concentration in the appropriate Kinase Buffer (see section Kinase Specific Assay Conditions for a complete description).
(§5) All ATP Solutions are diluted to a 4× working concentration in Kinase Buffer (50 mM HEPES pH 7.5, 0.01% BRIJ-35, 10 mM MgCl2, 1 mM EGTA). ATP Km apparent is previously determined using a Z″-LYTE assay.
(§6) The Development Reagent is diluted in Development Buffer (see section Kinase-Specific Assay Conditions—Direct and Cascade for a complete description).
(§7) Bar-coded Corning, low volume NBS, black 384-well plate (Corning Cat. #4514) • 1. 100 nL—100× Test Compound in 100% DMSO • 2. 2.4 μL—Kinase buffer • 3. 5 μL—2× Peptide/Kinase Mixture • 4. 2.5 μL—4×ATP Solution • 5. 30—second plate shake • 6. 60—minute Kinase Reaction incubation at room temperature • 7. 5 μL—Development Reagent Solution • 8. 30—second plate shake • 9. 60—minute Development Reaction incubation at room temperature • 10. Read on fluorescence plate reader and analyze the data Z′-LYTE Assay Controls
(§8) SelectScreen Kinase Profiling Service uses XLfit from IDBS. The dose response curve is curve fit to model number 205 (sigmoidal dose-response model).
The 2×LYN B/Tyr 02 mixture is prepared in 50 mM HEPES pH 7.5, 0.01% BRIJ-35, 10 mM MgCl2, 1 mM EGTA. The final 10 μL Kinase Reaction consists of 0.85-14.8 ng LYN B and 2 μM Tyr 02 in 50 mM HEPES pH 7.5, 0.01% BRIJ-35, 10 mM MgCl2, 1 mM EGTA. After the 1 hour Kinase Reaction incubation, 5 μL of a 1:128 dilution of Development Reagent A is added.

For a further test, the target named is FLT4 (VEGFR3) (Homo sapiens, UniProt P35916). Briefly: Z'-LYTE SelectScreen biochemical kinase assay FLT4 (VEGFR3).
Chain of FLT4 (VEGFR3) (P35916 25-1363): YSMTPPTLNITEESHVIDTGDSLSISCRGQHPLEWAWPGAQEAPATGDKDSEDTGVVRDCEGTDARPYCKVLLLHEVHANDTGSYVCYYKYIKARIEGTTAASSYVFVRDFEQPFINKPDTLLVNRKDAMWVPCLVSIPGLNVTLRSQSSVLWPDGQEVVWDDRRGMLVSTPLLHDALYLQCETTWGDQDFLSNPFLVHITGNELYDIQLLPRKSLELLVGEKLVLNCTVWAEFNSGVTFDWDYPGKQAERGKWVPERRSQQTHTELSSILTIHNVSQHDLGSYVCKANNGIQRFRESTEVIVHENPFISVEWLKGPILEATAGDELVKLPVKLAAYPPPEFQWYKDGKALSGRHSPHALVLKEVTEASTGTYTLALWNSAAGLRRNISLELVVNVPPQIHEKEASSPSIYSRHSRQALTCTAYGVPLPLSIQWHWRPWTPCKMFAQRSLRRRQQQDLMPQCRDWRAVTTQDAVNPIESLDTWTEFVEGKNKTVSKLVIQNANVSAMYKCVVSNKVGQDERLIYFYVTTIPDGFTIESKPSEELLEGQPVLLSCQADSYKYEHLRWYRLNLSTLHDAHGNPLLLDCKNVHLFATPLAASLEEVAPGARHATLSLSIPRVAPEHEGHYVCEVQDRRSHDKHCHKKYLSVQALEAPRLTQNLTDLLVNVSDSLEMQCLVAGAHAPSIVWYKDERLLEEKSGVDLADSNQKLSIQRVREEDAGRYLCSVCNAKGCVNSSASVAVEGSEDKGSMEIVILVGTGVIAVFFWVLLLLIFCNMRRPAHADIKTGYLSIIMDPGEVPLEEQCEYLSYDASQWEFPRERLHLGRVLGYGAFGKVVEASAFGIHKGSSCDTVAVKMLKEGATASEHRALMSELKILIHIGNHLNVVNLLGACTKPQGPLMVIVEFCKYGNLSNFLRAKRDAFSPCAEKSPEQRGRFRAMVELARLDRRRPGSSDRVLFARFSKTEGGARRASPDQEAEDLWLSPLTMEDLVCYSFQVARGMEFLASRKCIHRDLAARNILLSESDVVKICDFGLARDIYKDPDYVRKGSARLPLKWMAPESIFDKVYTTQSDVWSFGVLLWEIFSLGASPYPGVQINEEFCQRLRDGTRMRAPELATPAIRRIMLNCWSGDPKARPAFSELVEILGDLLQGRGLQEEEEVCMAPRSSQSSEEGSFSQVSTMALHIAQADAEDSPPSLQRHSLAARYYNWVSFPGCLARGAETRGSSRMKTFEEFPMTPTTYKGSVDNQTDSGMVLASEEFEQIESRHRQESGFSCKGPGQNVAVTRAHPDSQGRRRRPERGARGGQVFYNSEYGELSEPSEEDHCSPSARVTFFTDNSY
Text: as §1, §2, §3, §4, §5, §6, §7, §8
The 2×FLT4 (VEGFR3)/Tyr 04 mixture is prepared in 50 mM HEPES pH 7.5, 0.01% BRIJ-35, 10 mM MgCl2, 4 mM MnCl2, 1 mM EGTA, 2 mM DTT. The final 10 μL Kinase Reaction consists of 2-10.5 ng FLT4 (VEGFR3) and 2 μM Tyr 04 in 50 mM HEPES pH 7.5, 0.01% BRIJ-35, 10 mM MgCl2, 2 mM MnCl2, 1 mM EGTA, 1 mM DTT. After the 1 hour Kinase Reaction incubation, 5 μL of a 1:64 dilution of Development Reagent B is added.

A further test concerns the target RET (Homo sapiens, UniProt P07949). In words: Z'-LYTE SelectScreen biochemical kinase assay RET.
Text: as §1, §2, §3, §4, §5, §6, §7, §8
The 2×RET/Tyr 02 mixture is prepared in 50 mM HEPES pH 7.5, 0.01% BRIJ-35, 10 mM MgCl2, 1 mM EGTA. The final 10 μL Kinase Reaction consists of 0.49-3.64 ng RET and 2 μM Tyr 02 in 50 mM HEPES pH 7.5, 0.01% BRIJ-35, 10 mM MgCl2, 1 mM EGTA. After the 1 hour Kinase Reaction incubation, 5 μL of a 1:128 dilution of Development Reagent A is added.

The target of the next test is PTK2 (FAK) (Homo sapiens, UniProt Q05397). Briefly: Z'-LYTE SelectScreen biochemical kinase assay PTK2 (FAK).
Chain of PTK2 (FAK) (Q05397 whole entry): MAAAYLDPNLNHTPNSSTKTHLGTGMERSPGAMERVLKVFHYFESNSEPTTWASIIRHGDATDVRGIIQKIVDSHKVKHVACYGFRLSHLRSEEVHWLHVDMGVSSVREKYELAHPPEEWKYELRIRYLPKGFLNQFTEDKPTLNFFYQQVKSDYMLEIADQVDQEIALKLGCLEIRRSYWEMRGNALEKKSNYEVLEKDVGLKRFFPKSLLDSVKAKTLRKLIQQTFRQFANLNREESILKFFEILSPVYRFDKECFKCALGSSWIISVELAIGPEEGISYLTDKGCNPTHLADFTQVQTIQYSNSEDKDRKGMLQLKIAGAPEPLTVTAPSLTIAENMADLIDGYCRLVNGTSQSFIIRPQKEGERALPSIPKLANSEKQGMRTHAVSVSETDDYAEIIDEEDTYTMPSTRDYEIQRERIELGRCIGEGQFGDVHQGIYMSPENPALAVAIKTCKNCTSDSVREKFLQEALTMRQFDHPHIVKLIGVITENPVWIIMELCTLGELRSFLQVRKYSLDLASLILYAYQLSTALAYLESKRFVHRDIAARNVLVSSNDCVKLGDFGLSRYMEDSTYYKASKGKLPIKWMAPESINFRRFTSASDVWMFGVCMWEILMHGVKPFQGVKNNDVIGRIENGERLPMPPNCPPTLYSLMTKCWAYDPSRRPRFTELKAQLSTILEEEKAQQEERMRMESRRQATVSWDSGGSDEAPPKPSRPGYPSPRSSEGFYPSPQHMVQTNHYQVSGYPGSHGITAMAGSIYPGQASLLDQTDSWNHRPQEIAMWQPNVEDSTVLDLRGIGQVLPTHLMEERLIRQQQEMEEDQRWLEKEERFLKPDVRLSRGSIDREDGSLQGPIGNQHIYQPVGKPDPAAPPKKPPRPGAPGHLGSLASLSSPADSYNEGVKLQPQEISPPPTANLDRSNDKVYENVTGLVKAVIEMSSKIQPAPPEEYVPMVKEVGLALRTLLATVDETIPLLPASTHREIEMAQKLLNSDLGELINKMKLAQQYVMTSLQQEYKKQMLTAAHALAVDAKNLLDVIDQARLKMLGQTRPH
Text: as §1, §2, §3, §4, §5, §6, §7, §8
The 2×PTK2 (FAK)/Tyr 07 mixture is prepared in 50 mM HEPES pH 7.5, 0.01% BRIJ-35, 10 mM MgCl2, 1 mM EGTA. The final 10 μL Kinase Reaction consists of 12.5-100 ng PTK2 (FAK) and 2 μM Tyr 07 in 50 mM HEPES pH 7.5, 0.01% BRIJ-35, 10 mM MgCl2, 1 mM EGTA. After the 1 hour Kinase Reaction incubation, 5 μL of a 1:16 dilution of Development Reagent B is added.

Setting [1] is: 10 μmolar compound concentration, ATP at Km app, read-out: LYN B inhibition.
Where [2] appears, read: read-out: % Inhibition mean LYN B.
Where [3] appears, read: 10 μmolar compound concentration, ATP at Km app, read-out: FLT4 (VEGFR3) inhibition.
Setting [4] is: read-out: % Inhibition mean FLT4 (VEGFR3).
Setting [5] is: 10 μmolar compound concentration, ATP at Km app, read-out: RET inhibition.
The mark [6] stands for this setting: read-out: % Inhibition mean RET.
The mark [7] stands for this setting: 10 μmolar compound concentration, ATP at Km app, read-out: PTK2 (FAK) inhibition.
[8] abbreviates: read-out: % Inhibition mean PTK2 (FAK).

Structures are written as SMILES. Like-named read-outs stand apart in the source and are kept apart here.

In general, inhibition refers to the change of the read-out against control, counted positive when it falls.

Chain of RET (P07949 29-1114): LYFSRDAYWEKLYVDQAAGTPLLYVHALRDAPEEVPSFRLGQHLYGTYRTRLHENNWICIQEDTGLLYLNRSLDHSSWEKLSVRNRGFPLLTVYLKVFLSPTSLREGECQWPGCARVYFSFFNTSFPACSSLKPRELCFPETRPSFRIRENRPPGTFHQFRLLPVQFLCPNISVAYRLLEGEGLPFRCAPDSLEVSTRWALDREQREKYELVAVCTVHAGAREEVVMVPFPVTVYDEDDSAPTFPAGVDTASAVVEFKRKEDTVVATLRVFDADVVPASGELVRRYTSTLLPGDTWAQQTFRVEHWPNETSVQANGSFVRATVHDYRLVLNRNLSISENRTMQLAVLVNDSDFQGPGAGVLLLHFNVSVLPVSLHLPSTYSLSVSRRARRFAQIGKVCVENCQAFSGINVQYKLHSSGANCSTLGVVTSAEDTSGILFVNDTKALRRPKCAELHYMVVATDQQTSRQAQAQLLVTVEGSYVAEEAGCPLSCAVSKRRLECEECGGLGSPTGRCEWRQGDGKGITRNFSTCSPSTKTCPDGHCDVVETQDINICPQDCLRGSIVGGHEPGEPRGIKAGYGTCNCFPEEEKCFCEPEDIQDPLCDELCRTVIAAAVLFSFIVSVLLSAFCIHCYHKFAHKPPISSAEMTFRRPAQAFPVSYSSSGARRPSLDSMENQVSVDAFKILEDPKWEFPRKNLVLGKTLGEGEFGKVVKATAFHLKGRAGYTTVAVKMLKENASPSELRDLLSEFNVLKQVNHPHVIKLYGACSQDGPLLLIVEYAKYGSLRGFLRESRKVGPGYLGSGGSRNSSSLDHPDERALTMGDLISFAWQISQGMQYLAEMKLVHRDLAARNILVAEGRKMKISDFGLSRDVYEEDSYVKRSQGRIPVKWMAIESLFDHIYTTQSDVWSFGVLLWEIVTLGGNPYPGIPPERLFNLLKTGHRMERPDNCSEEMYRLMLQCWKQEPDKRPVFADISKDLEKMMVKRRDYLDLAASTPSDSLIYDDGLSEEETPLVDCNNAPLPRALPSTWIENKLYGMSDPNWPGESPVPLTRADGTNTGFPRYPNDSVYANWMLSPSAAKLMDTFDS
Chain of LYN B (P07948 1-491 isoform P07948-2): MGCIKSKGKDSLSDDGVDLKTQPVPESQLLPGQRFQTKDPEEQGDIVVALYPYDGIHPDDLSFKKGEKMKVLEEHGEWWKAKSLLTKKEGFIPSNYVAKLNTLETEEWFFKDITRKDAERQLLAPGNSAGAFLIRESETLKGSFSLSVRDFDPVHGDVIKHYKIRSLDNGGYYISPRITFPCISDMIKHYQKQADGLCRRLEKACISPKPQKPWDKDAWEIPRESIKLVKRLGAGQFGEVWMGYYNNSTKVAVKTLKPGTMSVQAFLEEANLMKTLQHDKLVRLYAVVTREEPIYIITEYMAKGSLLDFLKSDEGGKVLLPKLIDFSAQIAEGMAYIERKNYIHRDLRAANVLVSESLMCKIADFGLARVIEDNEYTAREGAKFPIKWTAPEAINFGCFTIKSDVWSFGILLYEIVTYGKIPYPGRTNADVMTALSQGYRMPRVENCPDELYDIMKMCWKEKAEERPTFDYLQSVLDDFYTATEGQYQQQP

In the case of `Cc1cc(F)ccc1-c1cccn2nc(NC3CCc4c(cnn4CC(C)C)C3)nc12` (centres unmarked) [Example 45, [8-(4-fluoro-2-methyl-phenyl)-[1,2,4]triazolo[1,5-a]pyridine-2-yl]-(1-isobutyl-4,5,6,7-tetrahydro-1H-indazol-5-yl)-amine], the inhibition at 10 µM is less than 40% at LYN B (setting [1]); 15% on LYN B (setting [2]); less than 40% at FLT4 (VEGFR3) (setting [3]); 33% at FLT4 (VEGFR3) (setting [4]); less than 40% at RET (setting [5]); 30% at RET (setting [6]). Also, the inhibition at 10 µM on PTK2 (FAK) (setting [7]) was less than 40%; on PTK2 (FAK) (setting [8]) it was 20%.

As to `CCn1ncc2c1CC[C@H](Nc1nc3c(-c4ccc(F)c(Cl)c4)cccn3n1)C2` [Example S-61, (S)-[8-(3-Chloro-4-fluoro-phenyl)-[1,2,4]triazolo[1,5-a]pyridine-2-yl]-(1-ethyl-4,5,6,7-tetrahydro-1H-indazol-5-yl)-amine], the inhibition at 10 µM at LYN B (setting [1]) is less than 40%; at LYN B (setting [2]), 8%; at FLT4 (VEGFR3) (setting [3]), less than 40%; at FLT4 (VEGFR3) (setting [4]), 24%; on RET (setting [5]) it was less than 40%; at RET (setting [6]), 23%. Moreover, the inhibition at 10 µM was less than 40% on PTK2 (FAK) (setting [7]) and 23% on PTK2 (FAK) (setting [8]).

For the compound `CCn1ncc2c1CCC(Nc1nc3c(-c4cccc(Cl)c4)cccn3n1)C2` (centres unmarked) [Example 59, [8-(3-Chloro-phenyl)-[1,2,4]triazolo[1,5-a]pyridine-2-yl]-(1-ethyl-4,5,6,7-tetrahydro-1H-indazol-5-yl)-amine], the inhibition at 10 µM was less than 40% at LYN B (setting [1]); 22% at LYN B (setting [2]); less than 40% on FLT4 (VEGFR3) (setting [3]); 39% at FLT4 (VEGFR3) (setting [4]); less than 40% on RET (setting [5]); 29% at RET (setting [6]). Also, the results for the inhibition at 10 µM at PTK2 (FAK) (setting [7]) and at PTK2 (FAK) (setting [8]) were less than 40% and 16%, respectively.

Take `Cc1cc(F)ccc1-c1cccn2nc(Nc3ccc4c(cnn4C)c3)nc12` [Example 9, [8-(4-fluoro-2-methyl-phenyl)-[1,2,4]triazolo[1,5-a]pyridine-2-yl]-(1-methyl-1H-indazol-5-yl)-amine]: the inhibition at 10 µM at LYN B (setting [1]) is less than 40%; on LYN B (setting [2]), 18%; on FLT4 (VEGFR3) (setting [3]), greater than 80%; on FLT4 (VEGFR3) (setting [4]) it was 86%; at RET (setting [5]) it was less than 40%; at RET (setting [6]), 39%. For the same compound, the inhibition at 10 µM was less than 40% at PTK2 (FAK) (setting [7]) and 7% on PTK2 (FAK) (setting [8]).

For the compound `CCn1ncc2c1CCC(Nc1nc3c(-c4ccccc4C)cccn3n1)C2` (centres unmarked) [Example 56, (1-Ethyl-4,5,6,7-tetrahydro-1H-indazol-5-yl)-[8-(2-methyl-phenyl)-[1,2,4]triazolo[1,5-a]pyridine-2-yl]-amine], the inhibition at 10 µM at LYN B (setting [1]) was less than 40%; at LYN B (setting [2]) it was 19%; at FLT4 (VEGFR3) (setting [4]), 35%; on RET (setting [5]), less than 40%; at RET (setting [6]) it was 27%; on PTK2 (FAK) (setting [7]), less than 40%. Besides, the inhibition at 10 µM on PTK2 (FAK) (setting [8]) was found to be 15%.

Take `CCn1ncc2c1CCC(Nc1nc3c(-c4cncc(Cl)c4)cccn3n1)C2` (centres unmarked) [Example 73, [8-(5-Chloro-pyridin-3-yl)-[1,2,4]triazolo[1,5-a]pyridine-2-yl]-(1-ethyl-4,5,6,7-tetrahydro-1H-indazol-5-yl)-amine]: the inhibition at 10 µM was less than 40% at LYN B (setting [1]); 31% at LYN B (setting [2]); 40 to 80% on FLT4 (VEGFR3) (setting [3]); 50% at FLT4 (VEGFR3) (setting [4]); 40 to 80% on RET (setting [5]); 62% on RET (setting [6]). For the same compound, the inhibition at 10 µM is less than 40% at PTK2 (FAK) (setting [7]) and 25% on PTK2 (FAK) (setting [8]).

Consider `CCn1ncc2c1CC[C@@H](Nc1nc3c(-c4ccc(F)cc4C)cccn3n1)C2` [Example R-42, (R)-(1-Ethyl-4,5,6,7-tetrahydro-1H-indazol-5-yl)-[8-(4-fluoro-2-methyl-phenyl)-[1,2,4]triazolo[1,5-a]pyridine-2-yl]-amine], for which the inhibition at 10 µM is less than 40% at LYN B (setting [1]); 26% on LYN B (setting [2]); less than 40% on FLT4 (VEGFR3) (setting [3]); 36% on FLT4 (VEGFR3) (setting [4]); less than 40% on RET (setting [5]); 23% on RET (setting [6]). For the same compound, the inhibition at 10 µM was less than 40% on PTK2 (FAK) (setting [7]) and 28% at PTK2 (FAK) (setting [8]).

As for `Cc1cc(F)ccc1-c1cccn2nc(NC3CCc4c(cnn4C)C3)nc12` (centres unmarked) [Example 10, [8-(4-fluoro-2-methyl-phenyl)-[1,2,4]triazolo[1,5-a]pyridine-2-yl]-(1-methyl-4,5,6,7-tetrahydro-1H-indazol-5-yl)-amine], the inhibition at 10 µM at LYN B (setting [1]) is less than 40%; on LYN B (setting [2]) it was 17%; at FLT4 (VEGFR3) (setting [3]), less than 40%; at FLT4 (VEGFR3) (setting [4]), 22%; on RET (setting [5]) it was less than 40%; on RET (setting [6]) it was 18%. For the same compound, the inhibition at 10 µM is less than 40% at PTK2 (FAK) (setting [7]) and 13% on PTK2 (FAK) (setting [8]).

For `CCn1ncc2c1CC[C@@H](Nc1nc3c(-c4ccc(F)c(Cl)c4)cccn3n1)C2` [Example R-61, (R)-[8-(3-Chloro-4-fluoro-phenyl)-[1,2,4]triazolo[1,5-a]pyridine-2-yl]-(1-ethyl-4,5,6,7-tetrahydro-1H-indazol-5-yl)-amine], the inhibition at 10 µM was less than 40% on LYN B (setting [1]); 17% at LYN B (setting [2]); less than 40% at FLT4 (VEGFR3) (setting [3]); 21% at FLT4 (VEGFR3) (setting [4]); less than 40% on RET (setting [5]); 20% on RET (setting [6]). Further, the results for the inhibition at 10 µM on PTK2 (FAK) (setting [7]) and on PTK2 (FAK) (setting [8]) were less than 40% and 16%, respectively.

The record behind these values is patent publication US11339161B2, “Triazolo pyridines as modulators of gamma-secretase” (Boehringer Ingelheim International GmbH, priority 2017, dated 2022).
